Experimental data: PubChem BioAssay (NCI)
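Method: 48-hour compound exposure of cells in 96-well plates, five concentrations, linear interpolation of endpoints. The concentration for full growth arrest is given as TGI.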

Legend:
Test in all cases: NCI anticancer screen, dose series, 48 h
NCI-H460 lung = test system: NCI-H460 lung
SK-OV-3 ovarian = test system: SK-OV-3 ovarian
NCI/ADR-RES ovarian = test system: NCI/ADR-RES ovarian
HCC-2998 colon = test system: HCC-2998 colon
PC-3 prostate = test system: PC-3 prostate
HT29 colon = test system: HT29 colon
CAKI-1 renal = test system: CAKI-1 renal
OVCAR-3 ovarian = test system: OVCAR-3 ovarian
MDA-N = test system: MDA-N
CCRF-CEM leukemia = test system: CCRF-CEM leukemia
TK-10 renal = test system: TK-10 renal
T-47D breast = test system: T-47D breast
LOX IMVI melanoma = test system: LOX IMVI melanoma
MALME-3M melanoma = test system: MALME-3M melanoma
M14 melanoma = test system: M14 melanoma
NCI-H23 lung = test system: NCI-H23 lung
A549 NSCLC = test system: A549 NSCLC
SW-620 colon = test system: SW-620 colon
HS 578T breast = test system: HS 578T breast
SK-MEL-2 melanoma = test system: SK-MEL-2 melanoma
ACHN renal = test system: ACHN renal
UO-31 renal = test system: UO-31 renal
MCF7 breast = test system: MCF7 breast
HOP-92 NSCLC = test system: HOP-92 NSCLC
SK-MEL-28 melanoma = test system: SK-MEL-28 melanoma
COLO 205 colon = test system: COLO 205 colon
MOLT-4 leukemia = test system: MOLT-4 leukemia
SK-MEL-5 melanoma = test system: SK-MEL-5 melanoma
NCI-H522 lung = test system: NCI-H522 lung
HL-60(TB) leukemia = test system: HL-60(TB) leukemia
OVCAR-4 ovarian = test system: OVCAR-4 ovarian
NCI-H226 lung = test system: NCI-H226 lung
OVCAR-5 ovarian = test system: OVCAR-5 ovarian
SF-539 CNS = test system: SF-539 CNS
KM12 colon = test system: KM12 colon
A498 renal = test system: A498 renal
HOP-62 NSCLC = test system: HOP-62 NSCLC
OVCAR-8 ovarian = test system: OVCAR-8 ovarian
SN12C renal = test system: SN12C renal
K-562 leukemia = test system: K-562 leukemia
SF-268 CNS = test system: SF-268 CNS
UACC-257 melanoma = test system: UACC-257 melanoma
BT-549 breast = test system: BT-549 breast
HCT-116 colon = test system: HCT-116 colon
HCT-15 colon = test system: HCT-15 colon
MDA-MB-231 breast = test system: MDA-MB-231 breast
MDA-MB-435 = test system: MDA-MB-435
RPMI-8226 leukemia = test system: RPMI-8226 leukemia
SNB-75 CNS = test system: SNB-75 CNS
RXF 393 renal = test system: RXF 393 renal
UACC-62 melanoma = test system: UACC-62 melanoma
U251 CNS = test system: U251 CNS
EKVX NSCLC = test system: EKVX NSCLC
786-0 renal = test system: 786-0 renal
SNB-19 CNS = test system: SNB-19 CNS
DU-145 prostate = test system: DU-145 prostate
SF-295 CNS = test system: SF-295 CNS
SR leukemia = test system: SR leukemia
IGROV1 ovarian = test system: IGROV1 ovarian

`CCOP(=O)(O)C(Nc1ccc(N=Nc2ccccc2)cc1)c1ccc(C(Nc2ccc(N=Nc3ccccc3)cc2)P(=O)(O)OCC)cc1` (stereo not drawn) showed a TGI (NCI-H460 lung) of 50.3 µM, a TGI (SK-OV-3 ovarian) of 36.8 µM and a TGI (NCI/ADR-RES ovarian) of 73 µM. The TGI (HCC-2998 colon) was 34.3 µM, the TGI (PC-3 prostate) was 35.7 µM and the TGI (HT29 colon) was 33.8 µM. The TGI (CAKI-1 renal) was > 100 µM, the TGI (OVCAR-3 ovarian) was > 100 µM and the TGI (MDA-N) was 40.8 µM. For the same molecule, the TGI (CCRF-CEM leukemia) was 41.6 µM, the TGI (TK-10 renal) was > 100 µM and the TGI (T-47D breast) was 47.1 µM. It also gave a TGI (LOX IMVI melanoma) of 29.6 µM, a TGI (MALME-3M melanoma) of 32.2 µM and a TGI (M14 melanoma) of 29.6 µM. For the same molecule, the TGI (NCI-H23 lung) was 64.2 µM, the TGI (A549 NSCLC) was 88.7 µM and the TGI (SW-620 colon) was 38.2 µM. For the same molecule, the TGI (HS 578T breast) was 46.8 µM, the TGI (SK-MEL-2 melanoma) was 32.8 µM and the TGI (ACHN renal) was > 100 µM. The TGI (UO-31 renal) was > 100 µM, the TGI (MCF7 breast) was > 100 µM and the TGI (HOP-92 NSCLC) was 95.1 µM. The TGI (SK-MEL-28 melanoma) was 33.5 µM, the TGI (COLO 205 colon) was 28.8 µM and the TGI (MOLT-4 leukemia) was 37.2 µM. The TGI (SK-MEL-5 melanoma) was 30.7 µM, the TGI (NCI-H522 lung) was 37.6 µM and the TGI (HL-60(TB) leukemia) was 37 µM. The TGI (OVCAR-4 ovarian) was > 100 µM, the TGI (NCI-H226 lung) was 99.2 µM and the TGI (OVCAR-5 ovarian) was 53.7 µM. For the same molecule, the TGI (SF-539 CNS) was 38.2 µM, the TGI (KM12 colon) was 31 µM and the TGI (A498 renal) was 64.8 µM. The TGI (HOP-62 NSCLC) was 36.3 µM, the TGI (OVCAR-8 ovarian) was 31.4 µM and the TGI (SN12C renal) was 46.3 µM. For the same molecule, the TGI (K-562 leukemia) was 35.7 µM, the TGI (SF-268 CNS) was 42.9 µM and the TGI (UACC-257 melanoma) was 70.1 µM. It also gave a TGI (BT-549 breast) of 49.2 µM, a TGI (HCT-116 colon) of 39.5 µM and a TGI (HCT-15 colon) of 47.9 µM. For the same molecule, the TGI (MDA-MB-231 breast) was 90.9 µM, the TGI (MDA-MB-435) was 32.4 µM and the TGI (RPMI-8226 leukemia) was 53.8 µM. It also gave a TGI (SNB-75 CNS) of 34.5 µM, a TGI (RXF 393 renal) of 49.3 µM and a TGI (UACC-62 melanoma) of 35 µM. It also gave a TGI (U251 CNS) of 33.5 µM, a TGI (EKVX NSCLC) of 41 µM and a TGI (786-0 renal) of 78.5 µM. For the same molecule, the TGI (SNB-19 CNS) was 41.2 µM, the TGI (DU-145 prostate) was > 100 µM and the TGI (SF-295 CNS) was 35 µM. For the same molecule, the TGI (SR leukemia) was 42.6 µM and the TGI (IGROV1 ovarian) was 47.8 µM.

With `O=C(O)c1cc(C(=O)O)nc(C(=O)O)c1` the TGI (NCI-H460 lung) was > 100 µM, the TGI (SK-OV-3 ovarian) was > 100 µM and the TGI (NCI/ADR-RES ovarian) was > 100 µM. The TGI (HCC-2998 colon) was > 100 µM, the TGI (PC-3 prostate) was > 100 µM and the TGI (HT29 colon) was > 100 µM. For the same molecule, the TGI (CAKI-1 renal) was > 100 µM, the TGI (OVCAR-3 ovarian) was > 100 µM and the TGI (MDA-N) was > 100 µM. For the same molecule, the TGI (CCRF-CEM leukemia) was > 100 µM, the TGI (TK-10 renal) was > 100 µM and the TGI (T-47D breast) was > 100 µM. For the same molecule, the TGI (LOX IMVI melanoma) was > 100 µM, the TGI (MALME-3M melanoma) was > 100 µM and the TGI (M14 melanoma) was > 100 µM. For the same molecule, the TGI (NCI-H23 lung) was > 100 µM, the TGI (A549 NSCLC) was > 100 µM and the TGI (SW-620 colon) was > 100 µM. The TGI (HS 578T breast) was > 100 µM, the TGI (SK-MEL-2 melanoma) was > 100 µM and the TGI (ACHN renal) was > 100 µM. For the same molecule, the TGI (UO-31 renal) was > 100 µM, the TGI (MCF7 breast) was > 100 µM and the TGI (HOP-92 NSCLC) was > 100 µM. For the same molecule, the TGI (SK-MEL-28 melanoma) was > 100 µM, the TGI (COLO 205 colon) was > 100 µM and the TGI (MOLT-4 leukemia) was > 100 µM. For the same molecule, the TGI (SK-MEL-5 melanoma) was > 100 µM, the TGI (NCI-H522 lung) was > 100 µM and the TGI (HL-60(TB) leukemia) was > 100 µM. The TGI (OVCAR-4 ovarian) was > 100 µM, the TGI (NCI-H226 lung) was > 100 µM and the TGI (OVCAR-5 ovarian) was > 100 µM. For the same molecule, the TGI (SF-539 CNS) was > 100 µM, the TGI (KM12 colon) was > 100 µM and the TGI (A498 renal) was > 100 µM. The TGI (HOP-62 NSCLC) was > 100 µM, the TGI (OVCAR-8 ovarian) was > 100 µM and the TGI (SN12C renal) was > 100 µM. The TGI (K-562 leukemia) was > 100 µM, the TGI (SF-268 CNS) was > 100 µM and the TGI (UACC-257 melanoma) was > 100 µM. For the same molecule, the TGI (BT-549 breast) was > 100 µM, the TGI (HCT-116 colon) was > 100 µM and the TGI (HCT-15 colon) was > 100 µM. The TGI (MDA-MB-231 breast) was > 100 µM, the TGI (MDA-MB-435) was > 100 µM and the TGI (RPMI-8226 leukemia) was > 100 µM. For the same molecule, the TGI (SNB-75 CNS) was > 100 µM, the TGI (RXF 393 renal) was > 100 µM and the TGI (UACC-62 melanoma) was > 100 µM. For the same molecule, the TGI (U251 CNS) was > 100 µM, the TGI (EKVX NSCLC) was > 100 µM and the TGI (786-0 renal) was > 100 µM. For the same molecule, the TGI (SNB-19 CNS) was > 100 µM, the TGI (DU-145 prostate) was > 100 µM and the TGI (SF-295 CNS) was > 100 µM. For the same molecule, the TGI (SR leukemia) was > 100 µM and the TGI (IGROV1 ovarian) was > 100 µM.
